Measured values reported in ChEMBL document CHEMBL4665802, “Design, Synthesis, and Structure-Activity Relationships of Indoline-Based Kelch-like ECH-Associated Protein 1-Nuclear Factor (Erythroid-Derived 2)-Like 2 (Keap1-Nrf2) Protein-Protein Interaction Inhibitors” (J Med Chem, 2020).
Activity calls are given as the source filed them. The rule behind the calls is not given here.

Legend:
[1] = Intrinsic clearance in human liver microsome at 1 uM preincubated for 5 mins followed by NADPH addition and measured after 45 mins by LC-MS/MS analysis; format: ADME; conditions: microsomes, 0.75 h
H9c2 [2] = experiment: Antioxidant activity against LPS-induced injury in rat H9c2 cells assessed as decrease in ROS level at 10 uM pretreated for 12 hrs followed by LPS addition measured after 12 hrs by H2DCFDA probe based flow cytometry; format: functional, cell-based; conditions: time 24.0 hrs
H9c2 [3] = experiment: Antiinflammatory activity against LPS-induced sepsis in rat H9c2 cells assessed as decrease in secretion of IL-1beta at 1 to 10 uM pretreated for 12 hrs followed by LPS addition measured after 12 hrs by sandwich ELISA; format: functional, cell-based; conditions: dose microM 1-10, time 24.0 hrs
[4] = target: T1, KEAP1/NRF2 (Rattus norvegicus) (UniProt O54968+P57790); experiment: Inhibition of Keap1-Nrf2 protein-protein interaction in rat H9c2 cells assessed as upregulation of NQO1 mRNA expression at 10 uM incubated for 4 to 24 hrs by Trizol reagent based qRT-PCR analysis; format: cell-based; conditions: time hrs 4-24
H9c2 [5] = experiment: Antiinflammatory activity against LPS-induced sepsis in rat H9c2 cells assessed as decrease in secretion of IL-6 at 1 to 10 uM pretreated for 12 hrs followed by LPS addition measured after 12 hrs by sandwich ELISA; format: functional, cell-based; conditions: dose microM 1-10, time 24.0 hrs
H9c2 [6] = experiment: Antiinflammatory activity against LPS-induced sepsis in rat H9c2 cells assessed as decrease in secretion of TNF-alpha at 1 to 10 uM pretreated for 12 hrs followed by LPS addition measured after 12 hrs by sandwich ELISA; format: functional, cell-based; conditions: dose microM 1-10, time 24.0 hrs
[7] = target: T1, KEAP1/NRF2 (Rattus norvegicus); experiment: Inhibition of Keap1-Nrf2 protein-protein interaction in rat H9c2 cells assessed as upregulation of GCLM expression incubated for 12 hrs by Western blot analysis; format: cell-based; conditions: dose microM 0.1-10, time 12.0 hrs
Mus musculus [8] = experiment: Antiinflammatory activity in LPS-stimulated sepsis in C57BL/6 mouse assessed as decrease in IL-1beta levels at 10 mg/kg, ip qd administered for 3 days prior to LPS stimulation and measured after 12 hrs by ELISA; format: functional, organism-based; conditions: time 3.5 day
H9c2 [9] = experiment: Upregulation of Nrf2 protein levels in rat H9c2 cells incubated for 12 hrs by Western blot analysis; format: functional, cell-based; conditions: dose microM 0.1-10, time 12.0 hrs
Mus musculus [10] = experiment: Antiinflammatory activity in LPS-stimulated sepsis in C57BL/6 mouse assessed as decrease in TNFalpha levels at 10 mg/kg, ip qd administered for 3 days prior to LPS stimulation and measured after 12 hrs by ELISA; format: functional, organism-based; conditions: time 3.5 day
[11] = Apparent volume of distribution in rat at 5 mg/kg, iv by LC-MS/MS analysis; format: ADME, organism-based; conditions: in vivo, read-out: Vz
Mus musculus [12] = experiment: Cardioprotective activity in LPS-stimulated sepsis in C57BL/6 mouse assessed as reduction in heart tissue damage at 10 mg/kg, ip qd administered for 3 days prior to LPS stimulation and measured after 12 hrs by hematoxylin and eosin staining based microscopy; format: functional, organism-based; conditions: time 3.5 day
[13] = Cmax in rat at 5 mg/kg, iv by LC-MS/MS analysis; format: ADME, organism-based; set-up: route intravenous, dose 5 mg/kg; conditions: in vivo
[14] = MRT (0 to infinity) in rat at 5 mg/kg, iv by LC-MS/MS analysis; format: ADME, organism-based; conditions: in vivo
[15] = target: T1, KEAP1/NRF2 (Rattus norvegicus); experiment: Inhibition of Keap1-Nrf2 protein-protein interaction in rat H9c2 cells assessed as upregulation of NQO1 expression incubated for 12 hrs by Western blot analysis; format: cell-based; conditions: dose microM 0.1-10, time 12.0 hrs
CYP1A2 = target: T2, CYP1A2 (Homo sapiens, UniProt P05177); experiment: Inhibition of CYP1A2 (unknown origin) at 10 uM using 7-ethoxycoumarin as substrate preincubated for 5 mins followed by NADPH addition and measured after 20 mins by LC-MS/MS analysis relative to control; format: ADME; conditions: probe 7-ethoxycoumarin
T2 sequence (P05177 whole entry): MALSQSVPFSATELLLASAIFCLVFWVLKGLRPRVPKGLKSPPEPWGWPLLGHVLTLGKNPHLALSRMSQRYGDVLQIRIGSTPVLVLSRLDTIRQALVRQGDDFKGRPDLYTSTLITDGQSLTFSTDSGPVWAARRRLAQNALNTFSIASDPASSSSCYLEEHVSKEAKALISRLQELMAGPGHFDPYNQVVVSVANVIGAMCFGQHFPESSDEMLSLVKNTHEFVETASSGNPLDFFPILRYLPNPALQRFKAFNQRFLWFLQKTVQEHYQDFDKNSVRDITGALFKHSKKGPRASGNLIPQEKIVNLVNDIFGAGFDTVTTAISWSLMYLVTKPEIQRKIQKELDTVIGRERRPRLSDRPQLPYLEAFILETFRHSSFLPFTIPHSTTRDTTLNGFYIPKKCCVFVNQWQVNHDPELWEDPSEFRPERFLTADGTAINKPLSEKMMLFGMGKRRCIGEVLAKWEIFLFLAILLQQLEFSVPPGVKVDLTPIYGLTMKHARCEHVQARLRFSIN

[16] = target: T1, KEAP1/NRF2 (Rattus norvegicus); experiment: Inhibition of Keap1-Nrf2 protein-protein interaction in rat H9c2 cells assessed as upregulation of GCLM expression at 10 uM incubated up to 24 hrs by Western blot; format: cell-based; conditions: time hrs <=24
CYP2D6 = CYP2D6 (Homo sapiens, UniProt P10635); experiment: Inhibition of CYP2D6 (unknown origin) at 10 uM using promethazine as substrate preincubated for 5 mins followed by NADPH addition and measured after 20 mins by LC-MS/MS analysis relative to control; format: ADME; conditions: probe promethazine
Sequence of CYP2D6 (P10635 whole entry): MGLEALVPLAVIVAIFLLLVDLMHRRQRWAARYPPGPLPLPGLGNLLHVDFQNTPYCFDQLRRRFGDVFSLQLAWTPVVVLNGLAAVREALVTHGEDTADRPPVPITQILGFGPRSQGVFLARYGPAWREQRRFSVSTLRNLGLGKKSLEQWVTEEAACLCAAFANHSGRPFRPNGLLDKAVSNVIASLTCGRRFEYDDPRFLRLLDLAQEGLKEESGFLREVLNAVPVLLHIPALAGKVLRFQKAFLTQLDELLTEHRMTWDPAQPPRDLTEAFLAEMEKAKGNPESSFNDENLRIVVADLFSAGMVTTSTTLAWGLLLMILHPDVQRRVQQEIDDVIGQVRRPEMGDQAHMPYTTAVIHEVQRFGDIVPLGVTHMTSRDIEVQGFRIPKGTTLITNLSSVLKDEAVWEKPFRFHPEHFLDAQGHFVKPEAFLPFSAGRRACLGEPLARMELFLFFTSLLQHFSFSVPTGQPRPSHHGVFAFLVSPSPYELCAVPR

[17] = Permeability of the compound at pH 7.4 incubated for 4 hrs by PAMPA; format: ADME; conditions: read-out: permeability
H9c2 [18] = experiment: Cytotoxicity against rat H9c2 cells assessed as reduction in cell viability up to 100 uM incubated for 24 hrs by MTT assay; format: cell-based; conditions: h9c2, 24 h
H9c2 [19] = experiment: Cytoprotective activity against LPS-induced sepsis in rat H9c2 cells assessed as increase in cell viability pretreated with compound for 12 hrs followed by LPS addition measured after 12 hrs by MTT assay; format: functional, cell-based; conditions: dose microM 0.1-10, time 24.0 hrs
Mus musculus [20] = experiment: Upregulation of NQO1 expression in LPS-stimulated C57BL/6 mouse model of sepsis at 10 to 40 mg/kg, ip qd administered for 3 days prior to LPS stimulation and measured after 12 hrs by Western blot analysis; format: functional, organism-based; conditions: dose mg/kg 10-40, time 3.5 day
CYP3A4 = CYP3A4 (Homo sapiens, UniProt P08684); experiment: Inhibition of CYP3A4 (unknown origin) at 10 uM using […] as substrate preincubated for 5 mins followed by NADPH addition and measured after 20 mins by LC-MS/MS analysis relative to control; format: ADME
Sequence of CYP3A4 (P08684 whole entry): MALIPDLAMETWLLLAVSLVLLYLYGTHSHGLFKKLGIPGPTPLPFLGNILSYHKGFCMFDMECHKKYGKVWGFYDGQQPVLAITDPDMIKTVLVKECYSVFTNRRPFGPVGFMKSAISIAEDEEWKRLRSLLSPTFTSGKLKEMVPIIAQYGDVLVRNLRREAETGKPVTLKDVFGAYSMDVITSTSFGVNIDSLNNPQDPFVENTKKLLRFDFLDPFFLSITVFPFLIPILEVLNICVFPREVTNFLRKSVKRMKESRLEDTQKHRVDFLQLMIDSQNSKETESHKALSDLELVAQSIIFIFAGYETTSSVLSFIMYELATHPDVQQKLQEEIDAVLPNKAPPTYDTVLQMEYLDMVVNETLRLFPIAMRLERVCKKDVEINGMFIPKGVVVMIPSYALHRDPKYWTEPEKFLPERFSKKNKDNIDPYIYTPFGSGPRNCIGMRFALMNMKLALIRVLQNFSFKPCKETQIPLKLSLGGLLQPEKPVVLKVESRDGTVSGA

Mus musculus [21] = experiment: Upregulation of Nrf2 protein levels in LPS-stimulated C57BL/6 mouse model at 10 to 40 mg/kg, ip qd administered for 3 days prior to LPS stimulation and measured after 12 hrs by Western blot analysis; format: functional, organism-based; conditions: dose mg/kg 10-40, time 3.5 day
[22] = target: T1, KEAP1/NRF2 (Rattus norvegicus); experiment: Inhibition of Keap1-Nrf2 protein-protein interaction in rat H9c2 cells assessed as upregulation of NQO1 expression at 10 uM incubated up to 24 hrs by Western blot; format: cell-based; conditions: time hrs <=24
[23] = Metabolic stability in human liver microsome assessed as half-life at 1 uM preincubated for 5 mins followed by NADPH addition and measured after 45 mins by LC-MS/MS analysis; format: ADME; conditions: liver microsomes

CLH [1]: 11.4 mL/min/kg
inhibition [4]: Active
inhibition [7]: Dose-dependent effect
Vd [11]: 0.64 L/kg
Cmax [13]: 78.2 µg/mL
MRT inf [14]: 1.1 h
inhibition [15]: Dose-dependent effect
inhibition at 20 min, 10 µM (CYP1A2): 8.75%
inhibition [16]: Active
inhibition at 20 min, 10 µM (CYP2D6): 19.9%
Papp at 4 h [17]: 5.27 ×10⁻⁶ cm/s
inhibition at 20 min, 10 µM (CYP3A4): 46.9%
inhibition [22]: Active
half-life at 1 µM [23]: 2.52 h
SMILES: COc1ccc(S(=O)(=O)NC(=O)CN(c2cccc3c2CCN3C(C(=O)NS(=O)(=O)c2ccc(C)cc2OC)c2cccc(OC)c2)S(=O)(=O)c2ccc(OC)cc2)cc1 (stereo unspecified)
Activity (H9c2 [2]): Active
Activity (H9c2 [3]): Active
Activity (H9c2 [5]): Active
Activity (H9c2 [6]): Active
Activity (Mus musculus [8]): Active
Activity (H9c2 [9]): Dose-dependent effect
Activity (Mus musculus [10]): Active
Activity (Mus musculus [12]): Active
Activity (H9c2 [18]): Non-Toxic
Activity (H9c2 [19]): Dose-dependent effect
Activity (Mus musculus [20]): Active
Activity (Mus musculus [21]): Active
